Reference: patent US9232799B2, “N-[(het)arylethyl)] pyrazole(thio)carboxamides and their heterosubstituted analogues” (BAYER INTELLECTUAL PROPERTY GMBH, priority 2010, dated 2016)
Values joined by “and” are separate entries in the source; they are usually repeats but may differ in a detail not shown here. Identical values can stand only once.

Key:
[1] = tested on: Blumeria graminis f.sp. hordei; assay: In vivo preventive test on Blumeria graminis (barley); details: 500 ppm of active ingredient, evaluated 7 days after inoculation
Text: (§1) To test for preventive activity, young plants are sprayed with the preparation of active compound or active compound combination at the stated rate of application.

[2] = tested on: Puccinia triticina; assay: In vivo preventive test on Puccinia triticina (wheat); details: evaluated 8 days after inoculation; for Efficacy: dose 500 ppm of active ingredient
[3] = tested on: Pyrenophora teres; assay: In vivo preventive test on Pyrenophora teres (barley); details: 500 ppm of active ingredient, evaluated 7-9 days after inoculation
Text: One day after this treatment, the plants are inoculated with an aqueous spore suspension of Pyrenophora teres.

[4] = tested on: Phakopsora pachyrhizi; assay: In vivo protective test on Phakopsora pachyrhizi (soybeans); details: dose 250 ppm of active ingredient, evaluated 11 days after inoculation
[5] = tested on: Fusarium graminearum; assay: microbe, parasite or virus in culture; assay type: cell-based; details: 50 μM
[6] = tested on: Venturia inaequalis; assay: In vivo preventive test on Venturia inaequalis (apple scab); details: 100 ppm of active ingredient, evaluated 10 days after inoculation
[7] = tested on: Uromyces appendiculatus; assay: In vivo preventive test on Uromyces appendiculatus (beans); details: 100 ppm of active ingredient, evaluated 10 days after inoculation
[8] = tested on: Alternaria solani; assay: In vivo preventive test on Alternaria solani (tomato); details: 500 ppm of active ingredient, evaluated 7 days after inoculation
Text: One day after this treatment, the plants are inoculated with an aqueous spore suspension of Alternaria solani.

[9] = tested on: Botrytis cinerea; assay: In vivo preventive test on Botrytis cinerea (beans)
Text: To test for preventive activity, young plants are sprayed with the preparation of active compound. After the spray coating has dried on, 2 small pieces of agar covered with growth of Botrytis cinerea are placed on each leaf.

[10] = tested on: Leptosphaeria nodorum; assay: In vivo preventive test on Leptosphaeria nodorum (wheat); details: 500 ppm of active ingredient, evaluated 7-9 days after inoculation
Text: One day after this treatment, the plants are inoculated with an aqueous spore suspension of Leptosphaeria nodorum.

[11] = tested on: Sphaerotheca fuliginea; assay: In vivo preventive test on Sphaerotheca fuliginea (cucumber); details: 500 ppm of active ingredient, evaluated 7 days after inoculation
Text: One day after this treatment, the plants are inoculated with an aqueous spore suspension of Sphaerotheca fuliginea.

[12] = tested on: Septoria tritici; assay: In vivo preventive test on Septoria tritici (wheat); details: 500 ppm of active ingredient, evaluated 21 days after inoculation
Text: as §1

[13] = logP by HPLC on reversed-phase column (C 18), EEC Directive 79/831 Annex V.A8; assay type: physicochemical
Description: In table 1, the logP values were determined in accordance with EEC Directive 79/831 Annex V.A8 by HPLC (High Performance Liquid Chromatography) on a reversed-phase column (C 18), using the method described below: Temperature: 40° C.; […]

[14] = tested on: Fusarium nivale (var. majus); assay: In vivo preventive test on Fusarium nivale (wheat); details: 500 ppm of active ingredient, evaluated 5 days after inoculation
Text: as §1

[15] = tested on: aflatoxines production; assay: microbe, parasite or virus in culture; assay type: cell-based, Aspergillus parasiticus; details: 50 μM
[16] = tested on: Fusarium nivale (var. majus); assay: In vivo curative test on Fusarium nivale (wheat); details: 500 ppm of active ingredient, evaluated 5 days after inoculation
[17] = preventive, beans, 100 ppm of active ingredient, lesion size 2 days after inoculation

| Structure (SMILES) | Efficacy [1] [%] | Efficacy [2] | Efficacy (protection) ([2]; preventive, 500 ppm of active ingredient) | Efficacy [3] [%] | Efficacy [4] [%] | % Inhibition of fungal growth at 50 μM [5] [%] | Efficacy [6] [%] | Efficacy [7] [%] | Efficacy [8] [%] | Efficacy [9, 17] [%] | Efficacy [10] [%] | Efficacy [11] [%] | Efficacy [12] [%] | logP [13] | Efficacy [14] [%] | % Inhibition of Aflatoxin at 50 μM [15] [%] | Efficacy [16] [%] | Efficacy ([9]; dose 500 ppm of active ingredient, table K10) [%] | Efficacy ([9]; preventive, beans, 500 ppm of active ingredient, lesion size 2 days after inoculation) |
| --- | --- | --- | --- | --- | --- | --- | --- | --- | --- | --- | --- | --- | --- | --- | --- | --- | --- | --- | --- |
| Cn1nc(C(F)F)c(C(=O)N(C2CC2)C2CCCC2c2ccc(Cl)cc2Cl)c1F (stereo not shown) [Example 211] | 100 | 100% and 98% | greater than 95% | 100 | 80 | 100 | 100 | 100 | 100 | 100 | 95 | 100 | 100 | 4.67 | 100 | 100 | – | – | – |
| Cn1nc(C(F)F)c(C(=O)N(C[Si](C)(C)c2ccc(Cl)cc2Cl)C2CC2)c1F [Example 238] | 100 | 100% | – | 100 | 85 | 100 | 100 | 100 | 94 | 100 | 100 | 98 | 100 | 4.78 | 83 | 100 | – | – | – |
| CCOC(c1ccc(Cl)cc1Cl)C(C)NC(=O)c1c(C(F)F)nn(C)c1F (mixture of isomers) [Example 83] | 100 | – | – | 100 | – | 100 | 100 | – | 100 | 98 | 90 | 100 | 100 | – | – | 100 | 100 | – | – |
| Cn1nc(C(F)F)c(C(=O)N(C[Si](C)(C)c2cc(Cl)cc(Cl)c2)C2CC2)c1F [Example 242] | 100 | 100% | – | 100 | 99 | 100 | 100 | 100 | 100 | 100 | 100 | – | 100 | 4.78 | 83 | 100 | – | 100 | total protection |
| Cn1nc(C(F)F)c(C(=O)N(C[Si](C)(C)c2ccccc2Cl)C2CC2)c1F [Example 231] | 100 | 100% | – | 100 | 80 | 100 | 99 | 100 | 94 | 99 | 100 | 100 | 100 | 4.13 | 83 | 100 | – | – | – |
| COC(c1cc(Cl)cc(Cl)c1)C(C)NC(=O)c1c(C(F)F)nn(C)c1F (mixture of isomers) [Example 109] | 100 | – | – | 100 | – | 100 | 99 | – | 95 | – | – | 85 | 100 | – | – | 100 | 100 | – | – |
| COC(c1cc(Cl)cc(Cl)c1)C(C)NC(=O)c1c(C(F)F)nn(C)c1Cl (mixture of isomers) [Example 108] | – | 100% | – | 100 | – | 100 | 100 | 100 | 90 | – | – | – | 100 | – | – | 100 | 100 | – | – |
| Cn1nc(C(F)F)c(C(=O)N(C[Si](C)(C)c2cccc(Cl)c2)C2CC2)c1F [Example 235] | 94 | 100% | – | 100 | 100 | 100 | 100 | 100 | 100 | 99 | 100 | 95 | 100 | 4.18 | 100 | 100 | – | – | – |
| CCOC(c1ccc(Cl)cc1Cl)C(C)NC(=O)c1c(C(F)F)nn(C)c1Cl (mixture of isomers) [Example 82] | – | – | – | 100 | – | 100 | 100 | – | 95 | 98 | – | 95 | 100 | – | – | 100 | 100 | – | – |
| CC(Cc1ccc(Cl)cc1Cl)NC(=S)c1c(C(F)F)nn(C)c1F (stereo not shown) [Example 70] | 100 | – | – | 100 | – | 100 | 100 | 75 | 95 | 100 | 78 | 98 | – | 4.16 | – | 100 | 92 | – | – |
| COC(CNC(=O)c1c(C(F)F)nn(C)c1Cl)c1ccc(Cl)cc1Cl (stereo not shown) [Example 74] | 100 | – | – | 95 | – | 100 | 100 | – | – | 93 | – | 75 | 100 | 3.48 | – | 100 | 100 | – | – |
| CCC(NC(=O)c1c(C(F)F)nn(C)c1Cl)C(OC)c1ccc(Cl)cc1Cl (mixture of isomers) [Example 76] | 100 | – | – | 100 | – | 100 | 100 | – | 95 | 72 | – | 93 | 100 | – | – | 100 | 86 | – | – |
| CCC(NC(=O)c1c(C(F)F)nn(C)c1F)C(OC)c1ccc(Cl)cc1Cl (stereo not shown) [Example 77] | 100 | – | – | 80 | – | 100 | 100 | – | 100 | 97 | 95 | 95 | 100 | 3.94 | – | 100 | 100 | – | – |
| COC(CNC(=O)c1c(C(F)F)nn(C)c1F)c1ccc(Cl)cc1Cl (stereo not shown) [Example 75] | 100 | – | – | 100 | – | 100 | 95 | – | – | 95 | – | 80 | 100 | 3.25 | – | 100 | 86 | – | – |
